# Results: paper PMC9322122, “Development of (4-Phenylamino)quinazoline Alkylthiourea Derivatives as Novel NF-κB Inhibitors” (Pharmaceuticals, 2022)
# How the values were obtained:
# [1] = Cell viability (WST-1), A549; assay type: cell-based; conditions: human, A549 cells, mean ± SEM, n = 3
# Experimental: (§1) Cells were incubated with the WST-1 reagent (Thermo Fisher Scientific, Waltham, MA, USA) at 37 °C for 2 h. The cell viability was determined by spectrophotometer at 450 nm.
# [2] = Cell viability (WST-1), HEK293; assay type: cell-based; conditions: human, HEK293 cells, mean ± SEM, n = 3
# Experimental: as §1
# [3] = system: NF-κB; assay: NF-κB luciferase reporter assay; assay type: cell-based; conditions: Homo sapiens, NF-κB-luciferase-transfected HEK293 cells, TNFα 50 ng/mL; for inhibition at 10 µM: mean ± SEM, n = 3, read-out: NF-κB Luciferase Activity Inh %
# Experimental: NF-κB Luciferase Reporter Vector was purchased from Signosis (Santa Clara, CA, USA) and transfected into HEK-293 cells using FuGENE HD (Promega, Fitchburg, MA, USA) following the manufacturer’s protocol. The transfected cells were incubated in serum-free DMEM for 16 h and then treated with DMSO or indicated compounds. After 3 h, cells were treated with or without 50 ng/mL of Recombinant Human TNFα Protein (R&D systems, Minneapolis, MN, USA) for another 3 h. The protein lysates were analyzed using Steady-Glo® Luciferase Assay System (Promega, Fitchburg, MA, USA) and TECAN Infinite 200 pro (Männedorf, Switzerland).
# [4] = biological target: Recombinant EGFR kinase (Homo sapiens, UniProt P00533); assay: Recombinant EGFR kinase activity; assay type: biochemical; conditions: read-out: Recombinant EGFR Kinase Activity (%inh at 150 nM)
# Chain of Recombinant EGFR kinase (P00533 25-1210): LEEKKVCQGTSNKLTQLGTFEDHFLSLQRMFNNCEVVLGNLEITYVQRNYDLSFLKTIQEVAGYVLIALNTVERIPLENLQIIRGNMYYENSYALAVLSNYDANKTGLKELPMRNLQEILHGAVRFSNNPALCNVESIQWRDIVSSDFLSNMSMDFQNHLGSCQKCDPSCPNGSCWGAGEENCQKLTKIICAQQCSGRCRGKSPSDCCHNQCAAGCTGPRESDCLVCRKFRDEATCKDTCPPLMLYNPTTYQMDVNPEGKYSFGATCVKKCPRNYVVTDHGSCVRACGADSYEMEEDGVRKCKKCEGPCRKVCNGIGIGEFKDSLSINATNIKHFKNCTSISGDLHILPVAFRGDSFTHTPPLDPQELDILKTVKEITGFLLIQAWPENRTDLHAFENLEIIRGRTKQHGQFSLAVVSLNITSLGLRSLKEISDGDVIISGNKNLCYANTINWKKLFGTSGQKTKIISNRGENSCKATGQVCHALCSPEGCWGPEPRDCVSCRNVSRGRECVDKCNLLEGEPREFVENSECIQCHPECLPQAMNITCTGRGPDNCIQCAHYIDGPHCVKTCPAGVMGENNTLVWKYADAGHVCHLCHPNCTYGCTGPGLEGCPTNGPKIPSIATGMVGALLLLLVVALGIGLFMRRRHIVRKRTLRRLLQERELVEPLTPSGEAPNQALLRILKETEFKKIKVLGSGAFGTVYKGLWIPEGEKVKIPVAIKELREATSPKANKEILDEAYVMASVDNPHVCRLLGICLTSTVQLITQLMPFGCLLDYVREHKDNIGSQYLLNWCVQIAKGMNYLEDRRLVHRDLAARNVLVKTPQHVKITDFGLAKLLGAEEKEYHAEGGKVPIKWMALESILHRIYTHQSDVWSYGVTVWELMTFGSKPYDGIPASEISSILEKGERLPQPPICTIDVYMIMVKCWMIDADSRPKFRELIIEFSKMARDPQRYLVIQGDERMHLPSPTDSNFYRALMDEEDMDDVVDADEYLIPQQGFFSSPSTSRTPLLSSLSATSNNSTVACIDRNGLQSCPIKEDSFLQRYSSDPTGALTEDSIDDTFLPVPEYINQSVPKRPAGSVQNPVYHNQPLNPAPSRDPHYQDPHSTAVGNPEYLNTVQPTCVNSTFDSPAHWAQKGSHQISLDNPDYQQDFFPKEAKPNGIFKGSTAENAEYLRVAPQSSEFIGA
# [5] = system: dTHP−1 cells; assay: Cell viability of dTHP-1 cells with or without LPS; assay type: cell-based, human; conditions: in % (unit assumed); for Cell viability of dTHP-1 cells, 5 μM, LPS / Cell viability of dTHP-1 cells, 5 μM, without LPS: 5 μM (so in the source); for Cell viability of dTHP-1 cells, 5 μM, without LPS / Cell viability of dTHP-1 cells, 7.5 μM, without LPS: no LPS
# Experimental: (§2) The HEK-293 (ATCC Cat# CRL-1573, RRID:CVCL_0045) and human monocytic THP−1 cells (ATCC Cat# TIB-202, RRID:CVCL_0006) were, respectively, cultured in DMEM and RPMI 1640 media supplemented with 10% fetal bovine serum, 2 mM L-glutamine, and 1× Antibiotic-Antimycotic at 37 °C in a humidified incubator with 5% CO2. THP−1 cells were differentiated by 100 nM phorbol-12-myristate-13-acetate (PMA) for 4 h and then rested for 44 h as dTHP−1 cells.
# as §1
# (§3) The dTHP−1 cells were treated with indicated compounds for 3 h and then activated with or without 100 ng/mL lipopolysaccharide (LPS; E. coli 0111:B4) for another 24 h. The levels of human IL-6 and TNFα in supernatants were measured by DuoSet® ELISA Development System (R&D systems, Minneapolis, MN, USA) according to the manufacturer’s protocol.
# [6] = system: TNFα production; assay: TNFα production in LPS-activated dTHP-1 cells (ELISA); assay type: cell-based; conditions: Homo sapiens; for inhibition at 7.5 µM / inhibition at 15 µM: LPS 100 ng/mL for 24 h, dTHP-1 cells; for inhibition at 7.5 µM: read-out: TNFα Production Inh % (7.5 μM); for inhibition at 15 µM: read-out: TNFα Production Inh % (15 μM); for IC50: LPS-activated dTHP-1 cells, 24 h
# Experimental: as §2, §3
# [7] = system: IL-6 production; assay: IL-6 production in LPS-activated dTHP-1 cells (ELISA); assay type: cell-based, human; conditions: for inhibition at 7.5 µM / inhibition at 15 µM / IC50: Homo sapiens; for inhibition at 7.5 µM: read-out: IL-6 Production Inh % (7.5 μM); for inhibition at 15 µM: read-out: IL-6 Production Inh % (15 μM); for IC50: LPS-activated dTHP-1 cells, 24 h
# Experimental: as §2, §3
# [8] = 7.5 μM, LPS 100 ng/mL for 24 h, dTHP-1 cells
# [9] = LPS 100 ng/mL for 24 h, dTHP-1 cells
SMILES,viability at 10 µM [1] [%],viability at 10 µM [2] [%],inhibition at 10 µM [3] [%],IC50 [3] [µM],melting point [°C],inhibition at 0.15 µM [4] [%],"Cell viability of dTHP-1 cells, 5 μM, LPS ([5]; LPS 100 ng/mL for 24 h)","Cell viability of dTHP-1 cells, 5 μM, without LPS [5]","Cell viability of dTHP-1 cells, 7.5 μM, LPS ([5]; 7.5 μM, LPS 100 ng/mL for 24 h)","Cell viability of dTHP-1 cells, 7.5 μM, without LPS ([5]; 7.5 μM)",inhibition at 7.5 µM [6] [%],inhibition at 15 µM [6] [%],IC50 [6] [µM],"inhibition at 7.5 µM [7, 8] [%]","inhibition at 15 µM [7, 9] [%]",IC50 [7] [nM],"IL-6 Production Inh % (7.5 μM) [7, 8]"
"CC(C)(C)c1ccc(CNC(=S)Nc2ccc3ncnc(Nc4cccc(Cl)c4)c3c2)cc1 [Compound 1, 1-(4-(tert-Butyl)benzyl)-3-(4-((3-chlorophenyl)amino)quinazolin-6-yl)thiourea]",91.1 ± 3.4,73.9 ± 4.6,41.6 ± 3.8,> 10,203 to 205,42,–,–,–,–,–,–,–,–,–,–,–
"COc1ccc(CNC(=S)Nc2ccc3ncnc(Nc4cccc(Cl)c4)c3c2)cc1 [Compound 2, 1-(4-((3-Chlorophenyl)amino)quinazolin-6-yl)-3-(4-methoxybenzyl)thiourea]",95.4 ± 1.9,101 ± 7.4,94.6 ± 0.1,1.7,165 to 167,67,78.8 ± 5.3,94.2 ± 1.6,57.5 ± 1.4,99.2 ± 1.5,32.5 ± 8.5,60.4 ± 1.8,10.2 ± 0.27,76.2 ± 13.3,87.5 ± 6.8,1200 ± 120,–
"FC(F)(F)c1ccc(CNC(=S)Nc2ccc3ncnc(Nc4cccc(Cl)c4)c3c2)cc1 [Compound 3, 1-(4-((3-Chlorophenyl)amino)quinazolin-6-yl)-3-(4-(trifluoromethyl)benzyl)thiourea]",73.4 ± 4.3,68.9 ± 6.4,46.5 ± 4.9,> 10,165 to 167,70,–,–,–,–,–,–,–,–,–,–,–
"S=C(NCc1ccc(Cl)cc1)Nc1ccc2ncnc(Nc3cccc(Cl)c3)c2c1 [Compound 4, 1-(4-Chlorobenzyl)-3-(4-((3-chlorophenyl)amino)quinazolin-6-yl)thiourea]",98.1 ± 1.9,95.9 ± 3.4,31.9 ± 9.6,> 10,166 to 168,56,–,–,–,–,–,–,–,–,–,–,–
"Fc1ccc(CNC(=S)Nc2ccc3ncnc(Nc4cccc(Cl)c4)c3c2)cc1 [Compound 5, 1-(4-((3-Chlorophenyl)amino)quinazolin-6-yl)-3-(4-fluorobenzyl)thiourea]",65.3 ± 1.1,67 ± 6.1,79.1 ± 0.8,1.9,164 to 166,72,–,–,–,–,–,–,–,–,–,–,–
"Fc1ccc(CNC(=S)Nc2ccc3ncnc(Nc4cccc(Cl)c4)c3c2)c(F)c1 [Compound 6, 1-(4-((3-chlorophenyl)amino)quinazolin-6-yl)-3-(2,4-difluorobenzyl)thiourea]",75.5 ± 2.9,85.5 ± 6.4,78.4 ± 2.7,1.6,178 to 180,68,5.0 ± 0.35,43.6 ± 9.0,–,62.0 ± 14.5,61.1 ± 5.8,76.6 ± 3.8,4.4 ± 0.85,97.6 ± 0.6,98.2 ± 1.3,360 ± 70,almost complete blockage
"COc1ccc(CNC(=S)Nc2ccc3ncnc(Nc4cccc(Cl)c4)c3c2)c(OC)c1 [Compound 7, 1-(4-((3-Chlorophenyl)amino)quinazolin-6-yl)-3-(2,4-dimethoxybenzyl)thiourea]",99.5 ± 1.4,85.9 ± 2.5,27.1 ± 3.4,> 10,204 to 206,48,91.9 ± 4.2,96.8 ± 4.2,–,94.4 ± 0.61,37 ± 4.9,50.3 ± 5.5,11.9 ± 0.7,71 ± 3.4,84 ± 0.82,1200 ± 160,–
"COc1cccc(CNC(=S)Nc2ccc3ncnc(Nc4cccc(Cl)c4)c3c2)c1 [Compound 8, 1-(4-((3-Chlorophenyl)amino)quinazolin-6-yl)-3-(3-methoxybenzyl)thiourea]",101 ± 2.3,100 ± 6.9,76.1 ± 2.6,2.3,183 to 185,40,–,–,–,–,–,–,–,–,–,–,–
"S=C(NCc1cccs1)Nc1ccc2ncnc(Nc3cccc(Cl)c3)c2c1 [Compound 9, 1-(4-((3-Chlorophenyl)amino)quinazolin-6-yl)-3-(thiophen-2-yl-methyl)thiourea]",50.7 ± 2.4,13.9 ± 0.7,98 ± 0.4,2.8,178.8 to 180.7,69.8,–,–,–,–,–,–,–,–,–,–,–
"S=C(NCc1ccco1)Nc1ccc2ncnc(Nc3cccc(Cl)c3)c2c1 [Compound 10, 1-(4-((3-Chlorophenyl)amino)quinazolin-6-yl)-3-(furan-2-ylmethyl)thiourea]",74.4 ± 11.7,71.7 ± 3.1,76.1 ± 2.3,4.3,195.6 to 198.2,79.1,–,–,–,–,–,–,–,–,–,–,–
"S=C(NCc1cccnc1)Nc1ccc2ncnc(Nc3cccc(Cl)c3)c2c1 [Compound 11, 1-(4-((3-Chlorophenyl)amino)quinazolin-6-yl)-3-(pyridin-3-ylmethyl)thiourea]",98.9 ± 4.1,62.8 ± 4,44.7 ± 5.8,> 10,205.6 to 207.9,66,–,–,–,–,–,–,–,–,–,–,–
"O=C(NCc1cccc(Cl)c1)Nc1ccc2ncnc(Nc3cccc(Cl)c3)c2c1 [Compound 12, 1-(3-Chlorobenzyl)-3-(4-((3-chlorophenyl)amino)quinazolin-6-yl)urea]",101 ± 4.2,114 ± 3.2,42.7 ± 9.3,> 10,225.5 to 227,34.6,–,–,–,–,–,–,–,–,–,–,–
"O=C(NCc1cccc(F)c1)Nc1ccc2ncnc(Nc3cccc(Cl)c3)c2c1 [Compound 13, 1-(4-((3-Chlorophenyl)amino)quinazolin-6-yl)-3-(3-fluorobenzyl)urea]",104 ± 5,95.5 ± 6.1,53.3 ± 10,8.1,210.8 to 212,23.3,–,–,–,–,–,–,–,–,–,–,–
"C#Cc1cccc(Nc2ncnc3ccc(NC(=O)NCc4cccc(Cl)c4)cc23)c1 [Compound 14, 1-(3-Chlorobenzyl)-3-(4-((3-ethynylphenyl)amino)quinazolin-6-yl)urea]",98.6 ± 3,110 ± 2.7,58.5 ± 0.9,8,222.4 to 228.8,44.5,–,–,–,–,–,–,–,–,–,–,–
"O=C(NC(=O)c1ccccc1)Nc1ccc2ncnc(Nc3cccc(Cl)c3)c2c1 [Compound 15, N-((4-((3-Chlorophenyl)amino)quinazolin-6-yl)carbamoyl)benzamide]",100 ± 4.5,114 ± 2.6,48.3 ± 9.3,> 10,252.4 to 254,26,–,–,–,–,–,–,–,–,–,–,–
"O=C(NC(=S)Nc1ccc2ncnc(Nc3cccc(Cl)c3)c2c1)c1ccccc1 [Compound 16, N-((4-((3-Chlorophenyl)amino)quinazolin-6-yl)carbamothioyl)benzamide]",102 ± 1.6,102 ± 4,58.2 ± 5.2,7,186.1 to 188.5,48.9,–,–,–,–,–,–,–,–,–,–,–
